The subject of one data set is NCI-H460. The data set can be described thus: In vitro proliferation assay (MTT), NCI-H460. As to conditions: Homo sapiens. In kind it is cell-based. A digest of the protocol: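 A570 of DMSO-solubilized formazan was the read-out. Seeding: 1000–2500 cells/well, overnight recovery. Compound exposure: 3 days. MTT incubation: 2–4 hr, 37 C. IC50 calculated from raw absorbance.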

Another data set deals with PC-3. Kind of data set: In vitro proliferation assay (MTT), PC-3. As to conditions: Homo sapiens. The data set is classed as cell-based, human. A digest of the protocol: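 A570 readout of DMSO-solubilized MTT formazan after 3-day compound exposure; IC50 from raw data. Cells plated 1000–2500/well and recovered overnight before dosing.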
The nature of data set [1]: Red blood cell binding, mouse whole blood. To be noted: 30 minutes at 37°C, 500 ng/ml. In kind it is in vitro ADME. The protocol:
(§1) Compounds, including one positive control, are assessed for red blood cell (RBC) uptake, using a modified procedure based on the protocol reported in Sun, J.X.S., et al. High-performance liquid chromatographic analysis, plasma protein binding and red blood cell partitioning of phenprobamate. Biopharmaceutics and Drug Disposition, 8 (1987) 341-351.
(§2) Briefly, RBC uptake is evaluated by comparison of the levels in spiked plasma (n=3) and plasma isolated from spiked whole blood (n=3). Compounds are incubated with human and mouse whole blood, respectively, for 30 minutes at 37°C using a nominal concentration of 500 ng/ml. Following centrifugation, the plasma is removed and submitted for analysis. Each compound is also spiked into blank plasma at a nominal concentration of 500 ng/ml, and submitted for analysis. Levels in the two plasma samples (Cp' and Cp in the equation below) and the blood hematocrit are used to determine the red blood cell to plasma ratio (Crbc/Cp). (Crbc)/(Cp) = (Cpʹ)/(Cp•H)-((1-H))/(H) [formula] In equation 1, Cp' is the level of drug in the spiked "blank" plasma, Cp is the level of drug in the plasma of spiked whole blood, and H is the hematocrit. The hematocrit values are determined as 0.4 for human whole blood and 0.41 for mouse whole blood. The samples are analyzed with ESI LC/MS, using positive ion detection with an internal standard.
(§3) The red blood cell to plasma ratio is determined for each compound using equation 1. Tables 6 and 7 summarize the respective mean Crbc/Cp values and standard deviations for mouse and human whole blood, respectively, in descending order based on the red blood cell to plasma ratio, where"*" denotes Positive Control, and "ND" denotes Not Determined. MDL 108552 is included as a positive control for red blood cell uptake. Table 6. Red Blood Cell to Plasma Ratio for compounds in mouse whole blood

Data set [2] is described as follows: Red blood cell binding, human whole blood. The data set is classed as in vitro ADME. As to conditions: 30 minutes at 37°C, 500 ng/ml. The protocol: as §1, §2, §3
The next data set in a line: in vivo. To be noted: male, Hsd:ICR (CD-1), mouse, plasma.
The target of a further data set is cdk1/cyclin B (Homo sapiens, UniProt P06493). Kind of data set: Cyclin-dependent kinase assay, cdk1/cyclin B. To be noted: CDK1 IC50, nM, Histone H1, 10 µM ATP.
Where [3] appears, read: NCI-H460, MTT assay, value (SD, n) where given, read-out: H-460 Lung (IC50 µM).
Where [4] appears, read: PC-3, MTT assay, value (SD, n) where given, read-out: PC-3 Prostate (IC50 µM).
[5] abbreviates: NCI-H460, read-out: H-460 Lung (IC50 µM).
[6] abbreviates: PC-3, read-out: PC-3 Prostate (IC50 µM).

Where two headings read alike, the source gives them in different places.

What is called IC50 is the concentration at which inhibition is half-maximal. Usually AUC(0-inf) stands for the area under the concentration-time curve extrapolated to infinity. In general, Cmax refers to the peak of the concentration-time curve. By half-life is commonly meant the time needed for the level to fall by half in the phase considered. Low values mean rapid decline, high ones slow decline.

Chain of cdk1/cyclin B (P06493 whole entry): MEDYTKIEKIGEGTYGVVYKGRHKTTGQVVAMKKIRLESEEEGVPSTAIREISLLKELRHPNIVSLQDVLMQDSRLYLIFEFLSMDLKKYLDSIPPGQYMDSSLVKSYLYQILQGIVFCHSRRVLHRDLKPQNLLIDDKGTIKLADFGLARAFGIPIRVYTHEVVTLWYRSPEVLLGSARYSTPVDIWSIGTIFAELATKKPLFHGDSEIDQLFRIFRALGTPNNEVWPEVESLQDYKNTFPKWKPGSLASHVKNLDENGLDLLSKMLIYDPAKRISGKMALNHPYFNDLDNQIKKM
Chain of cdk1/cyclin B (P14635 whole entry partner): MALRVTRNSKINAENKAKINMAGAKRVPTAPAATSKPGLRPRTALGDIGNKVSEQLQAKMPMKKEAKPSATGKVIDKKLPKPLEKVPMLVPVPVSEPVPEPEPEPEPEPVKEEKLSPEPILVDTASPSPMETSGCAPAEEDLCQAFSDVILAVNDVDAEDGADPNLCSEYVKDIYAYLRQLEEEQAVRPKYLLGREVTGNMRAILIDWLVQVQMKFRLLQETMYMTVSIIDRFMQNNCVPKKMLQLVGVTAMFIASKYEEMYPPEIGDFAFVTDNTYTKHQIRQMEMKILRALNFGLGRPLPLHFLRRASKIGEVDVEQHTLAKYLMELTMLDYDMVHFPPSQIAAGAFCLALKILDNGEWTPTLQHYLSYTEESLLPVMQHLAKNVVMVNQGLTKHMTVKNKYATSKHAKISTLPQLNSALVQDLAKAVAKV
Experimental for cdk1/cyclin B: The IC50 values for cdk1/cyclin B, cdk2/cyclin E, and cdk4/cyclin D1 inhibition are determined using the following methods: • The cdk1 sequence (accession number Y00272) is amplified by PCR and cloned into the BamHI and SalI sites of pFASTBAC1 (Life Technologies).
The cyclin B1 sequence (accession number M25753) is amplified by PCR and cloned into the BamHI and SalI sites of pFASTBAC1 (Life Technologies).
The insect cell (Sf9) expression is optimized for each of the CDK/cyclin pairs according to the manufacturer's protocols (Life Technologies). For cdk4-HA/cyclin D1-His6 an infection of 0.1 multiplicity of infection (MOI) for 48 hours gives the best expression levels of the complex as well as activity.
The viruses are added to the cells and the culture is incubated at 27°C for the desired time. The cells are harvested by centrifugation at 3000 rpm for 10 minutes. The cells are snap frozen on dry ice and stored at - 80°C.
Cell extracts are made following a standard procedure. The cell pellet is resuspended in lysis buffer (50 mM HEPES, pH 8.0, 10 mM MgCl2, 1 mM DTT, 2.5 mM EGTA, 1 mM EDTA, 10 mM β-glycerophosphate, 1 mM sodium vanadate, 1 mM sodium fluoride, 1 x Protease inhibitor cocktail). The cells are lysed using the microfluidizer (Microfluidics) for 20 minutes. Cell debris is removed by centrifugation at 100,000 x g. The cell extracts are aliquoted in 1 ml aliquots, frozen on dry ice, and stored at -80°C.
The kinase reactions are performed following a standard procedure. The enzyme and inhibitor are diluted in kinase buffer (50 mM HEPES, pH 8.0, 10 mM MgCl2, 2.5 mM EGTA, 10 mM β-glycerophosphate, 1 mM sodium vanadate, 1 mM sodium fluoride, and 1 mM DTT) and pre-incubated for 30 minutes. […] The cdk1 enzyme activity is assayed using Histone H1 (Sigma) in the presence of 10 µM ATP for 30 min at room temperature. The reactions are terminated by the addition of 50 µL of 10 mM cold ATP to stop the reactions. The reactions are transferred to a pre-soaked 96-well multi-screen plate containing 30 µL of 100% TCA per well. After incubation for one hour at room temperature, the plates are washed twice with 200 µl of 20% TCA, followed by 200 µl of 10% TCA and finally with 200 µl of 5% TCA. After drying the plates at room temperature, the filter plates are placed in adapter plates (Packard) and 40 µl of Microscint-O® (Packard) is added to each well. Top Seal A film is used to cover the plates before counting in a Top Count Scintillation Counter.
The % remained activity of the indicated Cdk/cyclin kinase complex in the presence of inhibitor is calculated by the ratio of cpm in the presence of inhibitor to cpm in the absence of inhibitor (%Activity = vi/vo x 100%).
Experimental for in vivo: Male mice are given single intravenous cassette doses of CDK inhibitor compounds.
Doses are adjusted for the weight of the individual dihydrochloride and trihydrochloride salts. The compounds are stored desiccated within a closed cabinet at room temperature before use. Dose levels are prepared on the morning of each study.
A single intravenous cassette dose (18 or 15 mg/kg free base) is administered. For each compound, this is equivalent to a dose of approx. 3 mg/kg free base. […] The dose is administered at a volume of 10 ml/kg (total volume of approximately 0.25 ml/animal).
Male mice (Hsd:ICR (CD-1® SD®), Harlan), each weighing approximately 20 - 30 g at the start of the study. […] Water is available ad libitum throughout the study.
Dose Administration and Sample Collection: • A single cassette dose of 5-6 compounds is administered by bolus injection into the tail vein over a 10 - 15-second period. […] Whole blood (approximately 0.6 ml/sample) is obtained by cardiac puncture and transferred to 3 ml glass tubes containing 45 U sodium heparin.
Sample Processing: Plasma: Whole blood is centrifuged at approximately 3,200 rpm for 10 min at approximately 5°C and the plasma (approx. 0.3 ml/sample) is transferred to chilled plastic vials and stored at approx. -70°C until bioanalysis.
Sample Analysis: Concentrations of each test article in plasma are quantitated by a non-validated method based on LC/MS using the following protocol.
Samples are removed from the freezer, allowed to thaw at room temperature, and vortexed to insure complete homogenization prior to sample manipulation. Samples are then prepared according to the following scheme: • 1. transfer 48 µL of plasma (blank mouse sample) into a 12 x 75 mm test tube. • 2. add 12 µL of working standard to the blank plasma for standard curve preparation. • 3. […] Inject 25 µL on LC/MS.
Data Analysis: Concentrations of Compounds in plasma of individual animals are determined by bioanalytics. […] Statistical analyses are limited to simple expressions of variation (mean and standard deviation). The plasma AUC (area-under-curve) is determined by the linear trapezoidal rule. […] All PK parameters are determined by noncompartmental methods using WinNonlin version 3.0 (Pharsight Corp). Plasma vs. time profiles are prepared by Sigma Plot (SPSS, Inc.).

Consider `CCOC(=O)c1ccc(NC(=O)N2CCC(Nc3nc(N[C@H]4CC[C@H](N)CC4)nc4c3ncn4C3CCCC3)CC2)cc1.Cl.Cl` [compound 154, trans-4-[(1-{4-[2-(4-Amino-cyclohexylamino)-9-cyclopentyl-9H-purin-6-ylamino]-piperidin-1-yl}-methanoyl)-amino]-benzoic acid ethyl ester dihydrochloride], for which, in the data set with NCI-H460 (setting [3]), the half-inhibitory concentration (IC50) amounted to 0.24 µM. In the data set on PC-3 (setting [4]), the IC50 came out at 0.23 µM. For the same molecule, the “Mean Red Blood Cell to Plasma Ratio” value in data set [1] came out at 17.8. For the same molecule, in data set [2], the “Mean Red Blood Cell to Plasma Ratio” value is 4.1. In “in vivo” (iv, 3 mg/kg), this molecule gave an AUC(0-inf) of 1580 ng·h/mL, a Cmax of 4850 ng/mL and a half-life of 0.8 h. In “in vivo” (iv, 18 mg/kg), this molecule yielded a concentration at 0.083 h of 4850 ± 794 ng/mL, a concentration at 0.25 h of 1130 ± 243 ng/mL, a concentration at 0.5 h of 377 ± 73.2 ng/mL and a concentration at 1 h of 126 ± 12.3 ng/mL. In the data set “in vivo” (iv, 18 mg/kg), the concentration at 3 h is 8.4 ± 3.1 ng/mL and the concentration at 6 h came out at 2.3 ± 1.6 ng/mL. Further, half-maximal inhibition on cdk1/cyclin B (IC50) was put at 11 nM.
For `Cl.Cl.N[C@H]1CC[C@H](Nc2nc(NC3CCN(C(=O)Oc4ccc(Cl)cc4)CC3)c3ncn(C4CCCC4)c3n2)CC1` [compound 88, trans-4-[2-(4-Amino-cyclohexylamino)-9-cyclopentyl-9H-purin-6-ylamino]-piperidine-1-carboxylic acid 4-chloro-phenyl ester dihydrochloride], the half-inhibitory concentration (IC50) in the data set with NCI-H460 (setting [5]) is 0.06 µM. Further, in the data set on PC-3 (setting [6]), the IC50 is 0.1 µM. In addition, the “Mean Red Blood Cell to Plasma Ratio” value in data set [1] amounted to 3.5. For the same molecule, in data set [2], the “Mean Red Blood Cell to Plasma Ratio” value is given as 2.6. Besides, in the data set “in vivo” (intravenous, 3 mg/kg), the concentration at 0.083 h was determined as 1480 ± 272 ng/mL, the concentration at 0.25 h amounted to 421 ± 49.9 ng/mL, the concentration at 0.5 h is 150 ± 5.9 ng/mL and the concentration at 1 h was 74.6 ± 16.1 ng/mL. In “in vivo” (intravenous, 3 mg/kg), this molecule came in with a concentration at 3 h of 24.8 ± 7.4 ng/mL, a concentration at 6 h of 8.9 ± 1.6 ng/mL and a concentration at 8 h of 5.4 ± 2 ng/mL. In the data set “in vivo” (iv, 3 mg/kg), this molecule had an area under the curve AUC(0-inf) of 642 ng·h/mL, a Cmax of 1480 ng/mL and a half-life of 1.9 h. The molecule further had a 50% inhibitory concentration (IC50) against cdk1/cyclin B of 35 nM.
In the case of `Cl.Cl.N#Cc1ccc(S(=O)(=O)N2CCC(Nc3nc(N[C@H]4CC[C@H](N)CC4)nc4c3ncn4C3CCCC3)CC2)cc1` [compound 109, trans-N^2-(4-Amino-cyclohexyl)-9-cyclopentyl-N^6-[1-(4-cyano-benzenesulfonyl)-piperidin-4-yl]-9H-purine-2,6-diamine dihydrochloride], in the data set with NCI-H460 (setting [3]), the half-maximal inhibitory concentration (IC50) is 0.25 µM. Also, the concentration for half-maximal inhibition (IC50) in the data set on PC-3 (setting [4]) turned out to be 0.32 µM. Moreover, the “Mean Red Blood Cell to Plasma Ratio” value in data set [1] was 2.4. Further, the “Mean Red Blood Cell to Plasma Ratio” value in data set [2] was found to be 5.0. Moreover, in “in vivo” (iv, 3 mg/kg), the AUC(0-inf) turned out to be 1110 ng·h/mL, the Cmax worked out at 1690 ng/mL and the half-life is 2 h. In “in vivo” (iv, 18 mg/kg), this molecule gave a concentration at 0.083 h of 1690 ± 224 ng/mL, a concentration at 0.25 h of 915 ± 15.2 ng/mL, a concentration at 0.5 h of 514 ± 45.2 ng/mL and a concentration at 1 h of 238 ± 38.7 ng/mL. Besides, in “in vivo” (iv, 18 mg/kg), the concentration at 3 h was 30.1 ± 8.5 ng/mL, the concentration at 6 h amounted to 9.5 ± 1.8 ng/mL and the concentration at 8 h turned out to be 5.5 ± 0.9 ng/mL. The IC50 against cdk1/cyclin B is 18 nM.
Take `Cl.Cl.N[C@H]1CC[C@H](Nc2nc(NC3CCN(C(=O)c4cccc(C(F)(F)F)c4F)CC3)c3ncn(C4CCCC4)c3n2)CC1` [compound 12, trans-1-{4-[2-(4-Amino-cyclohexylamino)-9-cyclopentyl-9H-purin-6-ylamino]-piperidin-1-yl}-1-(2-fluoro-3-trifluoromethyl-phenyl)-methanone dihydrochloride]: the IC50 in the data set on NCI-H460 (setting [3]) stood at 0.38 µM. For the same molecule, the IC50 in the data set with PC-3 (setting [4]) came to 0.48 µM. In addition, the “Mean Red Blood Cell to Plasma Ratio” value in data set [1] was 1.9. Further, in data set [2], the “Mean Red Blood Cell to Plasma Ratio” value turned out to be 3.6. In the data set “in vivo” (iv, 3 mg/kg), this molecule gave an AUC(0-inf) of 2550 ng·h/mL, a peak concentration (Cmax) of 4110 ng/mL and a half-life of 2.3 h. Moreover, in the data set “in vivo” (iv, 18 mg/kg), the concentration at 0.083 h came out at 4110 ± 754 ng/mL, the concentration at 0.25 h is 2360 ± 124 ng/mL, the concentration at 0.5 h was determined as 1090 ± 36.1 ng/mL and the concentration at 1 h turned out to be 465 ± 34.6 ng/mL. In the data set “in vivo” (iv, 18 mg/kg), this molecule returned a concentration at 3 h of 74.7 ± 17.4 ng/mL, a concentration at 6 h of 27 ± 2.7 ng/mL and a concentration at 8 h of 16.9 ± 1.4 ng/mL. The same molecule displayed an IC50 against cdk1/cyclin B of 88 nM.
Consider `COc1ccc(OC(=O)N2CCC(Nc3nc(N[C@H]4CC[C@H](N)CC4)nc4c3ncn4C3CCCC3)CC2)cc1.Cl.Cl` [compound 84, trans-4-[2-(4-Amino-cyclohexylamino)-9-cyclopentyl-9H-purin-6-ylamino]-piperidine-1-carboxylic acid 4-methoxy-phenyl ester dihydrochloride], for which the IC50 with NCI-H460 (setting [5]) was 0.07 µM. Further, the half-inhibitory concentration (IC50) in the data set with PC-3 (setting [6]) came out at 0.12 µM. Moreover, the “Mean Red Blood Cell to Plasma Ratio” value in data set [1] amounted to 3.5. Further, the “Mean Red Blood Cell to Plasma Ratio” value in data set [2] was 2.0. In the data set “in vivo” (iv, 3 mg/kg), the AUC(0-inf) was 965 ng·h/mL, the peak concentration (Cmax) was found to be 1510 ng/mL and the half-life was 1.5 h. In “in vivo” (iv, 18 mg/kg), the concentration at 0.083 h was 1510 ± 377 ng/mL, the concentration at 0.25 h was 883 ± 140 ng/mL, the concentration at 0.5 h was 446 ± 79 ng/mL and the concentration at 1 h is 202 ± 37.3 ng/mL. For the same molecule, in “in vivo” (iv, 18 mg/kg), the concentration at 3 h came out at 27 ± 2.4 ng/mL, the concentration at 6 h was determined as 6.1 ± 0.8 ng/mL and the concentration at 8 h was 2.9 ± 0.2 ng/mL. At cdk1/cyclin B, the 50% inhibitory concentration (IC50) was determined as 19 nM.
Turning to `Cl.Cl.N[C@H]1CC[C@H](Nc2nc(NC3CCN(S(=O)(=O)c4cccc(C(F)(F)F)c4)CC3)c3ncn(C4CCCC4)c3n2)CC1` [compound 112, trans-N^2-(4-Amino-cyclohexyl)-9-cyclopentyl-N^6-[1-(3-trifluoromethyl-benzenesulfonyl)-piperidin-4-yl]-9H-purine-2,6-diamine dihydrochloride], the IC50 in the data set with NCI-H460 (setting [3]) was 0.07 µM. Further, the half-maximal inhibitory concentration (IC50) in the data set on PC-3 (setting [4]) is 0.16 µM. Besides, the “Mean Red Blood Cell to Plasma Ratio” value in data set [1] is 2.4. Further, the “Mean Red Blood Cell to Plasma Ratio” value in data set [2] is listed as 3.7. For the same molecule, in “in vivo” (intravenous, 3 mg/kg), the concentration at 0.083 h is 2810 ± 272 ng/mL, the concentration at 0.25 h amounted to 1700 ± 312 ng/mL, the concentration at 0.5 h turned out to be 435 ± 48 ng/mL and the concentration at 1 h came to 175 ± 42.4 ng/mL. In the data set “in vivo” (intravenous, 3 mg/kg), this molecule yielded a concentration at 3 h of 45 ± 7.2 ng/mL, a concentration at 6 h of 17.7 ± 1.7 ng/mL and a concentration at 8 h of 13.6 ± 3.7 ng/mL. Moreover, in the data set “in vivo” (iv, 3 mg/kg), the area under the curve AUC(0-inf) amounted to 1460 ng·h/mL, the highest concentration (Cmax) stood at 2810 ng/mL and the half-life is 2.8 h. Besides, the half-maximal inhibitory concentration (IC50) at cdk1/cyclin B was found to be 32 nM.
As for `Cl.Cl.N[C@H]1CC[C@H](Nc2nc(NC3CCN(C(=O)Oc4ccc(F)cc4)CC3)c3ncn(C4CCCC4)c3n2)CC1` [compound 87, trans-4-[2-(4-Amino-cyclohexylamino)-9-cyclopentyl-9H-purin-6-ylamino]-piperidine-1-carboxylic acid 4-fluoro-phenyl ester dihydrochloride], the IC50 in the data set on NCI-H460 (setting [5]) worked out at 0.08 µM. In addition, in data set [1], the “Mean Red Blood Cell to Plasma Ratio” value was found to be 3.4. Also, the “Mean Red Blood Cell to Plasma Ratio” value in data set [2] was 8.4. Moreover, in the data set “in vivo” (intravenous, 3 mg/kg), the concentration at 0.083 h turned out to be 1170 ± 153 ng/mL, the concentration at 0.25 h was 372 ± 35.9 ng/mL, the concentration at 0.5 h is 141 ± 9.5 ng/mL and the concentration at 1 h was determined as 65 ± 14 ng/mL. In the data set “in vivo” (intravenous, 3 mg/kg), this molecule displayed a concentration at 3 h of 19.2 ± 6 ng/mL, a concentration at 6 h of 4.3 ± 0.7 ng/mL and a concentration at 8 h of 3.2 ± 1.6 ng/mL. In the data set “in vivo” (iv, 3 mg/kg), this molecule gave an area under the curve AUC(0-inf) of 513 ng·h/mL, a Cmax of 1170 ng/mL and a half-life of 1.6 h. Moreover, the IC50 against cdk1/cyclin B worked out at 15 nM.

(Values after patent EP1377579B1 (Aventis Pharmaceuticals Inc., priority 2000, dated 2002).)
